Measured values from US6689742B1, “NY-ESO-1 peptide derivatives, and uses thereof” (Chancellors, Masters and Scholars of the University of …, priority 2000, dated 2004).

Tests used:
clonal CTLs = experiment: recognition of peptide-pulsed T2 cells by clonal CTLs, 51Cr release; assay type: cell-based, human; conditions: T2 cells pulsed with varying concentrations of peptide
Method: Varying concentrations of peptide were used to pulse T2 cells. […] The same ^51Cr release assay described supra was used. Prior to testing the CTLs, these were assayed to determine if they each expressed a single T cell receptor.

[1] = tested on: ESO1 specific CTL clone ESO5; experiment: recognition by specific CTLs, 51Cr release from peptide-pulsed T2 cells; assay type: cell-based, human; conditions: for EC50: T2 targets, CTL clone ESO5, lymphocyte:target ratio 30:1, 4 hours, read-out: Peptide ([nM] 50%), concentration giving 50% maximal activity; for Relative antigenic activity: [nM] 50% of SEQ ID NO: 2 divided by [nM] 50% of test peptide
Method: As indicated, supra, the peptides described herein were tested for recognition by specific CTLs. In these experiments, target T2 cells were labelled with ^51Cr for 1 hour, at 37° C., and then washed two times. Sample (1000 labelled cells in 50 μl) were then incubated with varying concentrations of peptide, for 15 minutes. Effector cells (50 μl) were then added. These effector cells are ESO1 specific CTL clone ESO5. The lymphocyte: target ratio was 30:1. Chromium release was measured after 4 hours of incubation at 37° C., by testing 100 μl supernatant samples.
Specific percent lysis was calculated as: [formula]

[2] = tested on: HLA-A2 restricted NY-ESO-1 specific CTLs (CTL NW38-IVS-1); experiment: 51Cr release cytotoxicity assay, peptide-pulsed T2 cells with CTL NW38-IVS-1; assay type: cell-based, human; conditions: 10 ug/ml peptide, effector/target ratio 90:1, four hours
Method: Samples of T2 cells were labelled with 100 uCi of Na(^51Cr)O4, using standard methods, and were then washed three times, followed by incubation with 10 ug/ml peptide and 2.5 ug/ml of β2-microglobulin. Incubation was for one hour, at room temperature. Then responder cells (100 ul of a suspension of CTL NW38-IVS-1) were added, at an effector/target ratio of 90:1, and incubated for four hours in a water saturated atmosphere, with 5% CO2, at 37° C. Then, plates were centrifuged at 200×g for five minutes, 100 ul of supernatant was removed, and radioactivity was measured. The percentage of ^51Cr release was determined in accordance with known strategies.

HLA-A*0201 molecules = HLA-A*0201 molecules (Homo sapiens, UniProt P04439, D140Y/D185E/D98H/E176V/E277Q/G131W/G231S/I119V/I121R/I166T/I218V/L300P/L318F/N151K/N90K/P208A/P217A/Q86G/Q94H/R138H/R169H/T345S); experiment: functional competition binding assay (inhibition of lysis of SEQ ID NO: 4 pulsed T2 cells by CTL clone LAU 132/2)
Method: The functional competition binding assay employed is that taught by Valmori, et al., J. Immunol 161:6956-6962 (1998), incorporated by reference, but elaborated upon herein.
(SEQ ID NO: 4) is known to bind to HLA-A*0201 molecules, and to provoke lysis by an HLA-A*0201 restricted CTL clone, known as LAU 132/2. […] T2 cells were labelled with ^51Cr, in the presence of anti class I monoclonal antibody W6/32. […] Then, a suboptimal dose (1 nM) of SEQ ID NO: 4 (50 μl) were added, together with 50 μl of the T cells (5000 cells/well). ^51Cr release was measured after 4 hours incubation at 37° C. […] In order to facilitate the comparison, relative competitive activity of each peptide was calculated as [nM] […] 50% value determined for the test peptides.

[3] = tested on: SEQ ID NO: 2 specific CTLs; experiment: killing specificity of tetramer-sorted CTLs, 51Cr release; assay type: cell-based, human; conditions: 1 μM peptide, effector/target ratios 1:1 and 0.3:1; unpulsed T2 not killed
Method: These tetramers were then used to stain a sample of cells taken from a patient who had been diagnosed previously as having a NY-ESO-1 positive melanoma. See Dunbar, et al., J. Immunol 162(12):6959-62(1999) and Ser. No. 09/049,850, filed Mar. 27, 1998, incorporated by reference. In brief, however, peripheral blood lymphocyte (“PBL”) samples were stained with tetramers for 15 minutes at 37° C., followed by washing in PBS/1% FCS at 37° C., followed by incubation with a labelled, anti-CD8 antibody for 30 minutes, on ice. The cells were then washed three times, in ice cold PBS/1% FCS, and were then analyzed via flow cytometry.
The CTLs described supra were then tested for killing specificity. […] Killing was determined using the ^51Cr release assay described supra.

[4] = tested on: NY-ESO-1 specific T cells (tumor infiltrating lymphocytes); experiment: IFN-γ ELISPOT of short term tumor infiltrating lymphocyte culture with T2 cells plus peptide; assay type: cell-based, human; conditions: 1 μM peptide, 2×10^3 cultured cells/well, 5×10^4 T2 cells/well; control cultures 19 spots
From the text: Samples of lymph nodes or metastatic lesions were taken from a patient who presented slowly progressive melanoma with recurrent metastases, all of which were localized to the same paravertebral region. […] Further, the patient's serum indicated high titer of anti-NY-ESO-1 antibodies.
The surgically resected lymph nodes or metastatic lesions were finely minced in sterile, RPMI 1640 medium that had been supplemented with 10% fetal calf serum. Suspensions of cells were placed in 24-well tissue culture plates, in 2 ml of Iscove's Dulbecco medium, supplemented with 0.24 mM Asn, 0.55 mM Arg, 1.5 mM Gln, 10% pooled human A+ serum, 100 U/ml IL-2, and 10 ng/ml of IL-7. The cells were cultured for 2-3 weeks, prior to being assayed via IFN-γ ELISPOT, in accordance with Czerkinsky, et al, J. Immunol. Meth 110:29 ([…]), incorporated by reference. In brief, 2×10^3 cells/well of the short term culture referred to supra were combined with either 5×10^4 T2 cells/well, or the same number of T2 cells, plus 1 μM of one of SEQ ID NOS: 1-3. Each culture was run in duplicate.

[5] = tested on: NA8-MEL (A2+, NY-ESO-1-) cells; experiment: 51Cr release assay, CTL ESO5 on A2+ melanoma cell lines with or without peptide; assay type: cell-based, human; conditions: exogenously added peptide; not lysed when absent
Method: Cell lines NA8-MEL (A2^+, NY-ESO-1^−), SK-MEL37 (A2^+, NY-ESO-1^+), and Me 275 (A2^+, NY-ESO-1^+) were tested, in ^51Cr release assays, as described supra.

CTLs = experiment: 51Cr release assay in presence of reducing agent (DTT or TCEP); assay type: cell-based, human; conditions: 200 μM DTT or TCEP
[6] = tested on: NY-ESO-1 157-165 specific CTLs; experiment: CTL assays of modified peptides; assay type: cell-based, human
Method: All of these peptides were tested in CTL assays of the type described supra.

Row | Substance | recognition by all T cells (clonal CTLs) (clonal CTLs) | EC50 [1] [nM] | stimulation of HLA-A2 restricted NY-ESO-1 specific CTLs (51Cr release) [2] | other results
1 | 157-164: a peptide consisting of the first 8 amino acids of SEQ ID NO: 11 (SLLMWITQ; listed as Homo sapiens) | failed to recognize | – | – | –
2 | QLSLLMWIT [SEQ ID NO: 3, natural NY-ESO-1 peptide] | recognized | 50 | three best stimulators | Relative antigenic activity [1]: 0.012; fold less efficient competitor than SEQ ID NO: 4 (HLA-A*0201 molecules): 100 fold
3 | SLLMWITQC [SEQ ID NO: 2, natural NY-ESO-1 peptide, parental peptide] | recognized | 0.6 | three best stimulators | killing of peptide-pulsed T2 cells by CTLs [3]: killed; recognition by CTL, in words ([1]; CTL clone ESO5, compared with parental peptide SEQ ID NO: 2): optimally recognized antigenic peptide; mean number of spots (IFN-γ ELISPOT) [4]: 424 spots; lysis of NA8-MEL by CTL ESO5 when peptide added [5]: lysed; increase of antigenicity in the presence of reducing agent (CTLs): 10 fold
4 | SLLMWITQCF (listed as Homo sapiens) [SEQ ID NO: 11] | recognized | – | – | –
5 | SLLMWITQCFL [SEQ ID NO: 1, natural NY-ESO-1 peptide] | failed to recognize | 50 | three best stimulators | Relative antigenic activity [1]: 0.012; mean number of spots (IFN-γ ELISPOT) [4]: 396 spots
6 | SLLMWITQCI (Mutagen 10 Synthesized. At position 10 of SEQ ID NO 11, Phe is replaced by Ile) [SEQ ID NO: 14] | – | – | – | recognition compared to SEQ ID NO: 2, in words [6]: recognized more efficiently
7 | SLLMWITQI (Mutagen 9 Synthesized. At position 9, of SEQ ID NO2,Cys is replaced by Ile) [SEQ ID NO: 12] | – | – | – | increase of recognition by NY-ESO-1 157-165 specific CTLs as compared to SEQ ID NO: 2 [6]: about 1000 fold
8 | SLLMWITQL [SEQ ID NO: 7] | – | 0.01 | – | increase of recognition by NY-ESO-1 157-165 specific CTLs as compared to SEQ ID NO: 2 [6]: about 1000 fold
